The text below walks through data of patent US20080194656A1, “Benzotriazole Derivatives as Cannabinoid Receptor Antagonists” (priority 2005, published 2008).

Experiment [1] deals with T1, Cb-1 receptor stably expressed in CHO-K1 cells (Homo sapiens, UniProt P21554).
T1 construct: host or cells: CHO-K1
Description: Cyclic AMP accumulation (HTRF cAMP assay, antagonism of CP55940). The conditions noted are these: forskolin and CP55940 (agonist), 30 min at 25° C.; for IC50: read-out: Example C2 cAMP (antagonism) pIC50 (converted). It is filed as cell-based. The protocol: (§1) Human Cb-1 transfected CHO-K1 cells (Euroscreen; Cat # ES-110-C; hCB1-D1; accession n′ Swissprot X54937) were maintained as described previously (Felder et al., 1995 & 1998). For membrane preparation, cells were cultured in DMEM/Ham's F12 medium containing 10% (v/v) heat inactivated FCS, 100 U/ml penicillin and 100 μg/ml streptomycin, 100 μg/ml pyruvate and 292 μg/ml L-glutamine under 5% CO2 at 37° C. in roller bottles, with medium changed 3 times a week. When 90% confluent, cells collected by trypsinisation and re-seeded at 1:10 or 1:20 dilutions to fresh roller bottles. For measurement of cAMP formation, cells were cultured to 90% confluency in Falcon T175 flasks.
Using the commercially available dynamic homogenous time-resolved fluorescence cAMP assay, the cAMP measurements on CHO-K1 cells that stably express the Cb-1 receptor were performed. Cells were detached from flasks using 3 ml EDTA (0.04% (w/v) in PBS) and resuspended in PBS (without Ca^2+ and Mg^2+) and centrifuged at 500×g for 5 min. Cell pellet was resuspended in stimulation buffer (HBSS medium containing 1 mM IBMX, 5 mM Hepes, 10 mM MgCl2 and 0.1% (w/v) BSA) and were dispensed into a black 96 well plate at a cell density of 20000 cells per well. After 30 min at 25° C., an equal volume of stimulation buffer containing forskolin and CP55940 (agonist) and/or a Cb-1 antagonist was added to the cells. After 30 min incubation at 25° C., cAMP detection was performed by addition of an equal volume of cAMP-XL665 and anti-cAMP-cryptate conjugates. The plate was incubated for a further 60 min at 25° C. and then measured with Discovery (PerkinElmer N.V./S.A. Belgium).
Background: Time-resolved FRET reads energy transfer from a long-lived donor to a nearby acceptor.

Experiment [2] concerns the target T2, Human Cb-1 receptor (transfected CHO-K1 cell membranes) (Homo sapiens, UniProt P21554).
T2 construct: host or cells: CHO-K1
Description: Cb-1 competition receptor binding in cell membranes ([3H]CP55,940 displacement). As to conditions: 3H-CP55,940 0.5 nM, 1 hour at 25° C.; for IC50: read-out: Example C1 Binding pIC50 (converted). The protocol: as §1
Prior to membrane preparation, confluent cells were treated with 5 mM butyrate for 24 hours. Medium was aspirated and cells were scraped from bottles in 50 ml homogenization buffer consisting of 15 mM Tris-HCl, pH 7.4 containing 2 mM MgCl2, 0.3 mM EDTA and 1 mM EGTA. The cells were then centrifuged for 10 minutes at 1700×g at 4° C. and homogenized in 20 ml same buffer with an Ultra Turrax. The crude membrane pellet was collected by two consecutive centrifugation steps at 20,000×g for 10 min and for 20 min at 25,000×g respectively, separated by a washing/homogenization step in 10 ml homogenization buffer. Final cell pellets were resuspended in a volume of 6 ml/roller bottle in stock buffer consisting of 7.5 mM Tris-HCl, pH 7.4, containing 12.5 mM MgCl2, 0.3 mM EDTA, 1 mM EGTA and 250 mM sucrose. Protein content was assayed by the BioRad method (Bradford, 1976).
Competition binding assays were performed in triplicate in a final volume of 0.5 ml containing incubation buffer (50 mM Tris-HCl, pH 7.4 containing 2.5 mM EDTA and 0.5% (w/v) BSA), 50 μl ^3H-CP55,940 (0.5 nM final), 0.4 ml transfected CHO-K1 membrane proteins (60 μg/ml) in the presence or absence of test compound. Non-specific binding determined using 1 μM CP55,940. The samples were incubated for 1 hour at 25° C., being terminated by rapid filtration on GF/C filters presoaked in 0.1% polyethylenimine, using a Unifilter-96 Harvester (PerkinElmer N.V./S.A. Belgium). Filters were washed 6 times with cold washing buffer (50 mM Tris-HCl, pH 7.4 containing 0.1% BSA), plates air-dried overnight before bound [^3H]CP55,940 was measured by liquid scintillation counting using a TopCount NXT microplate scintillation counter (Packard BioScience/ PerkinElmer N.V./S.A. Belgium). IC50 values were determined by a single-site binding equation (GraphPad Prism, San Diego, Calif., U.S.A.).

For experiment [3], the system named is food intake in rats and mice. Description: Feeding experiments, acute dose-response on food intake. As to conditions: oral single dose, food intake 1 h after lights out. It is filed as in vivo. The protocol: Male Sprague Dawley rats (weighing 250-300 g at the time of experiment) were obtained from Charles River (Sulzfeld, Kisslegg, Germany). Male C57Bl/6J Rj mice (weighing 25-30 g at the time of experiments) were obtained from Janvier (Le Genest-St-Isle, France). All animals had free access to water and were individually housed under 12-h light:dark cycle (lights on at 22:00 h) and at a temperature of 19-22° C. and 35-40% humidity in Techniplast IVC cages adapted to fit external food hoppers. Rats and mice were fed a standard purified diet containing 10% kcal fat (Dyets, Inc. Bethlehem, USA; or Research diets, New Brunswick, N.J., USA). All experiments were carried out in accordance with the European Communities Council Directives (86/609/EEC) and were approved by the local ethical committee.
An acute dose-response analysis for each compound was performed. All rats and mice were randomly assigned and orally dosed with either vehicle (10% cyclodextran containing 0.9% (w/v) saline) or vehicle containing a single concentration of compound (0.16, 0.63, 2.50, 10.0, 40.0 mg/kg at 10 ml/kg) so that the average latency from time of drug administration and lights out was 45 minutes, with 6 animals per group. Food intake was measured 1, 2, 4, 6 and 24 hours after lights out.

Experiment [4] has as its target T2, Human Cb-1 receptor (transfected CHO-K1 cell membranes). Description: Cb-1 competition receptor binding in cell membranes ([3H]CP55,940 displacement). The conditions noted are these: statement on the enantiomers of the racemate, no test named.

T2 sequence (P21554 whole entry): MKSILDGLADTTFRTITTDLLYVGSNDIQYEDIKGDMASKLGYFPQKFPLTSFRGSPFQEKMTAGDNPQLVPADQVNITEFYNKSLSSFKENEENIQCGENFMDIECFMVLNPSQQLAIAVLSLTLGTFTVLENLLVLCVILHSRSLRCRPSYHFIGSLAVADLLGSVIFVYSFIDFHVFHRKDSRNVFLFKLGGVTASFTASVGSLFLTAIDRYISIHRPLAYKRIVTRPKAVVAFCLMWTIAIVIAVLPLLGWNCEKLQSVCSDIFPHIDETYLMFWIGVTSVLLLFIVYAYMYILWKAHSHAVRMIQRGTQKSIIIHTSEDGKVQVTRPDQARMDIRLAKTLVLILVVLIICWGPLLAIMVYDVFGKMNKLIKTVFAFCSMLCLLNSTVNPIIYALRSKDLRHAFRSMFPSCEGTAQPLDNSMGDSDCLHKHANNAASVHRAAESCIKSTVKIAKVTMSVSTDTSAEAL
T1 sequence (P21554 whole entry): as above

Turning to `CC(C)n1nnc2ccc(C(c3ccc(Cl)cc3)n3cncn3)cc21` (stereo not drawn) [Compound 7], the “Example C2 cAMP (antagonism) pIC50” value in experiment [1] was found to be 6.9. In experiment [2], the “Example C1 Binding pIC50” value is 6.69.

For `Clc1ccc(C(c2ccc3nnn(C4CCCCC4)c3c2)n2cncn2)cc1` (racemic) [Intermediate 7, 1H-Benzotriazole, 6-[(4-chlorophenyl)-1H-1,2,4-triazol-1-ylmethyl]-1-cyclohexyl-], the IC50 in experiment [1] is 36.3 nM; in experiment [2], 288 nM. In experiment [3] (po, 1 h, read-out: Example C3 Food intake at 1 h ED50), the ED50 is 3.28 mg/kg.

Regarding `CC(C)n1nnc2ccc(C(c3ccc(Cl)cc3)n3ccnc3)cc21` (stereo not drawn) [Compound 12], in experiment [2], the “Example C1 Binding pIC50” value worked out at 5.53.

As for `Cn1nnc2ccc(C(c3ccc(Cl)cc3)c3nccs3)cc21` (stereo not drawn) [Compound 6], the IC50 in experiment [2] is 5370 nM.

For `Clc1ccc([C@H](c2ccc3nnn(C4CCCCC4)c3c2)n2cncn2)cc1` (single isomer, unassigned) [Compound 2, 1H-Benzotriazole, (−)-6-[(4-chlorophenyl)-1H-1,2,4-triazol-1-ylmethyl]-1-cyclohexyl-], the “Example C3 Food intake at 1 h ED50” value in experiment [3] worked out at 2.69 mg/kg. Also, the IC50 in experiment [2] is 141 nM.

On to `CCCCn1nnc2ccc(C(c3ccc(Cl)cc3)n3cncn3)cc21` (stereo not drawn) [Compound 8], for which the “Example C2 cAMP (antagonism) pIC50” value in experiment [1] stood at 6.62. In addition, the “Example C1 Binding pIC50” value in experiment [2] came out at 6.45.

Regarding `Clc1ccc(C(c2ccc3nnn(Cc4ccccc4)c3c2)n2ccnc2)cc1` (stereo not drawn) [Compound 13], in experiment [2], the “Example C1 Binding pIC50” value is given as 5.61.

On to `Clc1ccc(C(c2ccc3nnn(-c4ccccc4)c3c2)n2ccnc2)cc1` (stereo not drawn) [Compound 10], for which the “Example C2 cAMP (antagonism) pIC50” value in experiment [1] is listed as 6.38. For the same molecule, the “Example C1 Binding pIC50” value in experiment [2] is listed as 6.28.

As to `Clc1ccc(Cn2nnc3ccc(C(c4ccc(Cl)cc4)n4ccnc4)cc32)cc1` (stereo not drawn) [Compound 5], the IC50 was 955 nM in experiment [1] and 832 nM in experiment [2].

Regarding `c1ccc(C(c2ccc3nnn(C4CCCCC4)c3c2)n2ccnc2)cc1` (stereo not drawn) [Compound 9], the “Example C2 cAMP (antagonism) pIC50” value in experiment [1] is 5.79. For the same molecule, the “Example C1 Binding pIC50” value in experiment [2] is given as 6.05.

For `CC(c1ccccc1)n1nnc2ccc(C(c3ccc(Cl)cc3)n3ccnc3)cc21` (stereo not drawn) [Compound 11], in experiment [2], the “Example C1 Binding pIC50” value was found to be 5.67.

`CC(C)CCn1nnc2ccc(C(c3ccc(Cl)cc3)n3ccnc3)cc21` (stereo not drawn) [Compound 4]: the IC50 was 339 nM in experiment [1] and 933 nM in experiment [2].

`Clc1ccc([C@H](c2ccc3nnn(C4CCCCC4)c3c2)n2cncn2)cc1` [Compound 2, 1H-Benzotriazole, (−)-6-[(4-chlorophenyl)-1H-1,2,4-triazol-1-ylmethyl]-1-cyclohexyl-]: in experiment [4], the “active as a CB1 modulator” value is recorded as “active”.

For the molecule `Clc1ccc([C@H](c2ccc3nnn(C4CCCCC4)c3c2)n2cncn2)cc1` (single isomer, unassigned) [Compound 1], the “Example C3 Food intake at 1 h ED50” value in experiment [3] is >100 mg/kg. The IC50 in experiment [2] was 8910 nM.
